TGI and GI50 data for eight compounds are collected here from PubChem BioAssay (NCI).

Holding throughout (test): NCI anticancer screen, dose series, 48 h
In test [1] the test system is SW-620 colon.
The subject of test [2] is TK-10 renal.
Test [3] concerns A549 NSCLC.
Test [4] deals with U251 CNS.
In test [5] the test system is LOX IMVI melanoma.
Test [6] deals with NCI-H23 lung.
The test system of test [7] is HS 578T breast.
Test [8] has as its system IGROV1 ovarian.
In test [9] the test system is OVCAR-5 ovarian.
Test [10] deals with T-47D breast.

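Values below derive from 48-hour exposures of cells grown in 96-well plates, with endpoints linearly interpolated between the two concentrations bracketing the appropriate inhibition level. GI50: concentration for 50% inhibition of growth. TGI is the concentration that stops growth completely.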

With `O=C(Nn1c(-c2ccccc2)nc2ccccc2c1=O)c1ccccc1O`, the TGI in [1], in test [2], in test [3], in test [4], in test [5] and in test [6] was > 100 µM in each case. The TGI in test [7], in [8], in [9] and in [10] was > 100 µM in each case.

As for `O=C(Oc1ccc(CO[N+](=O)[O-])cc1)c1ccccc1`, the GI50 in test [1] was 0.103 µM; in test [2] it was 0.173 µM; in test [3], 1.23 µM; in test [4], 0.145 µM; in test [5], 163 nM; in [6] it was 0.351 µM. Also, the GI50 in test [7] is 0.0911 µM; in [8], 203 nM; in test [9], 0.172 µM; in test [10], 137 nM. Moreover, the TGI in test [1] turned out to be 0.251 µM; in test [2], 0.334 µM; in test [3], 2.49 µM; in [4] it was 0.276 µM; in test [5], 0.316 µM; in test [6] it was 1.43 µM. Further, the TGI is 0.422 µM in [7], 0.411 µM in test [8], 0.316 µM in [9] and 0.323 µM in [10].

With `OCc1ccc(-c2cscc2-c2ccc(CO)o2)o1`, the GI50 in test [1] was 7.14 µM; in test [2], > 100 µM; in test [3], 3.89 µM; in test [4], 44.1 µM; in [5] it was > 100000 nM; in [6] it was 64.6 µM. In addition, the GI50 in test [7] is > 78.3 µM; in [8], 576 nM; in [9], 0.216 µM; in test [10], 1460 nM. Further, the TGI in test [1] is > 100 µM; in test [2], > 100 µM; in test [3], 30.6 µM; in test [4] it was > 100 µM; in test [5], > 100 µM; in [6], > 100 µM. Further, the TGI in test [7] is > 100 µM; in test [8], 6.47 µM; in test [9], 1.97 µM; in test [10], 9.65 µM.

As to `COc1ccc(-c2nc(-c3nc4ccc(F)cc4[nH]3)c3ccccn23)cc1`, the GI50 in test [1] was 22.4 µM; in test [2], 16.1 µM; in [3], 3.96 µM; in [4], 13.6 µM; in test [5] it was 10800 nM; in [6] it was 18.7 µM. The GI50 in [7] is 8.54 µM; in [8], 6630 nM; in test [9], 45.2 µM; in [10], 3550 nM. Also, the TGI in test [1] is > 100 µM; in test [2], 57.9 µM; in test [3] it was 28.4 µM; in test [4], 51.3 µM; in [5], > 100 µM; in test [6], > 100 µM. Also, the TGI was > 100 µM in test [7], 47.2 µM in [8], > 100 µM in test [9] and 20.8 µM in [10].

Regarding `COC(=O)COc1ccc(/C=C2/N=C(c3ccccc3)N(c3c(C)n(C)n(-c4ccccc4)c3=O)C2=O)cc1`, the GI50 in [1] is 22 µM; in [2] it was 18.5 µM; in [3], > 100 µM; in test [4] it was 67.6 µM; in [5] it was 18000 nM; in test [6] it was 57.5 µM. Further, the GI50 was 24.7 µM in test [7], 23600 nM in [8], 62.4 µM in [9] and 21300 nM in [10]. In addition, the TGI in test [1] was 50.6 µM; in test [2], 34.1 µM; in test [3], > 100 µM; in [4], > 100 µM; in test [5], 32.8 µM; in [6], > 100 µM. In addition, the TGI in [7] was 60.5 µM; in test [8], 42.3 µM; in [9] it was > 100 µM; in test [10] it was 61.2 µM.

Regarding `COc1ccc(C(O)c2cc3c(N)c(C(=O)Nc4cccc(Cl)c4)sc3nc2C)cc1` (stereo not drawn), the GI50 in test [1] was 1 µM; in test [3], 1.45 µM; in test [4], 1.14 µM; in test [5], 1710 nM; in [6] it was 1.82 µM; in test [7], 0.825 µM. Also, the figures for the GI50 in test [8], in test [9] and in test [10] were 2520 nM, 1.98 µM and 1150 nM, respectively. In addition, the TGI in [1] was > 38.3 µM; in [2] it was > 50.3 µM; in test [3], > 39.7 µM; in test [4], > 37.8 µM; in test [5], > 40.7 µM; in [6] it was > 50.1 µM. Moreover, the TGI is > 56 µM in test [8], > 48.7 µM in [9] and 31.9 µM in test [10].

In the case of `Cc1nn2c(/C=C3/C(=O)Nc4cc(Cl)ccc43)c(-c3ccccc3)nc2s1`, the GI50 in test [1] was 3 µM; in [2] it was 2.34 µM; in [3], 3.28 µM; in [4], 2.68 µM; in [5], 2410 nM; in test [6], 3.68 µM. The GI50 in test [7] is 3.52 µM; in test [8], 2070 nM; in test [9], > 100 µM; in test [10] it was 1750 nM. Also, the TGI is > 100 µM in [1]; 4.14 µM in test [2]; 14.9 µM in test [3]; 8.5 µM in [4]; 6.02 µM in [5]; > 100 µM in [6]. The TGI in test [7] was > 100 µM; in test [8], 4.62 µM; in [9], > 100 µM; in test [10], 4.04 µM.

For `Cc1cc(O)c(C2=NN(c3ccc(S(N)(=O)=O)cc3)C(c3ccc(Cl)cc3)C2)c(C)c1Cl` (stereo not drawn), the GI50 in test [1] was 3.72 µM; in [2] it was 4.48 µM; in test [3], 5.91 µM; in test [4] it was 3.34 µM; in [5], 2340 nM; in test [6], 5.82 µM. Also, the GI50 was 3.45 µM in [7], 6190 nM in [8], 12.3 µM in test [9] and 2930 nM in test [10]. For the same compound, the TGI in test [1] amounted to 15.2 µM; in [2], 18.8 µM; in test [3], 22.5 µM; in test [4], 13.5 µM; in test [5], 6.98 µM; in test [6], 19.9 µM. Besides, the TGI in test [7] turned out to be 20 µM; in test [8], 22.3 µM; in [9], 24.7 µM; in test [10], 14.9 µM.
